PMC10254045, “Elaboration of the Effective Multi-Target Therapeutic Platform for the Treatment of Alzheimer’s Disease Based on Novel Monoterpene-Derived Hydroxamic Acids” (International Journal of Molecular Sciences, 2023)
Where two headings read alike, the source gives them in different places.

Key:
[1] = DPPH radical scavenging activity; conditions: Trolox equivalent; compounds and Trolox 100 µM
From the text: (§1) DPPH is a stable chromogen radical, which is widely used to assess the antioxidant activity of biological objects, in particular when searching for potential therapeutic agents used to maintain the redox balance in the body and treat pathologies associated with the action of free radicals. In turn, the oxygen radical absorbance capacity (ORAC) analysis is based on the removal by potential antioxidants of peroxyl radicals generated by AAPH (2,2’-axobis-2-methyl-propanimidamide, dihydrochloride), preventing the degradation of the fluorescein probe.
The measurement of the antiradical activity of synthesized hydroxamic acids was carried out using the method described in [150]. The studied compounds were introduced into the wells of a 96-well black tablet (the final concentration was 100 microns), after which a freshly prepared solution of 2,2-diphenyl-1-picrylhydrazyl (Sigma Aldrich, St. Louis, Missouri, USA) was added. After the incubation time had elapsed, the DPPH radical-scavenging activity was measured using a multifunctional Cytation™3 tablet analyzer (BioTek Instruments, Inc., Winooski, VT, USA) at λ = 517 nm by the difference in the reduction of the DPPH radical peak between control samples containing an equivalent volume of solvent and samples with the substances under study.

Cell viability, MTT test = format: cell-based; conditions: human, SH-SY5Y neuroblastoma cells, 24-h exposure, read-out: IC50 cytotoxic action
Experimental: The culture of human neuroblastoma cells (defined as SH-SY5Y) was cultured in DMEM with the addition of embryonic bovine serum (10%), 2 mM glutamine (DiaM, Moscow, Russia) and penicillin-streptomycin (100 U/Ml–100 µg/mL, PanEco, Moscow, Russia) in conditions of 5% CO2 in the air at 37 °C. Upon reaching 80% confluence, cells in the amount of 1 × 10^4 were placed in 96-well transparent plates and incubated under the same conditions for 24 h. After the incubation time, the cells were exposed to a 24-h exposure to various concentrations of hydroxamic acids dissolved in dimethyl sulfoxide (range from 1 to 100 µM). An equivalent volume of solvent was used as a control (final DMSO content = 1%).
Cell survival analysis was performed using MTT test. To do this, 3-(4,5-dimethylthiazol-2-yl)-2,5-diphenyltetrazolium bromide (MTT, 5 mg/mL, DiaM, Moscow, Russia) was introduced into all wells and incubated at 37 °C for 2 h to restore metabolically active cells of the yellow tetrazolium salt MTT to purple formazane crystals. The resulting formazane was then re-suspended in 200 µL DMSO per well. The optical density was recorded using a multifunctional Cytation™3 flatbed analyzer (BioTek Instruments, Inc., Winooski, VT, USA) at λ = 530 nm.

[2] = Oxygen radical absorbance capacity (ORAC); conditions: Trolox equivalent; compounds and Trolox 100 µM, AAPH 12 mM
From the text: as §1
The analysis of the absorption capacity of oxygen radicals was performed as described in [151], with some modifications. Trolox (Sigma Aldrich, St. Louis, MI, USA) was used as a standard antioxidant. The studied compounds were introduced into the holes of a 96-hole black tablet with a transparent bottom with Trolox (25 µL; the final concentration was 100 µM) and fluorescein (150 µL; the final concentration was 80 nM, Sigma Aldrich, St. Louis, MI, USA). The resulting mixture was shaken and incubated for 30 min at 37 °C. After a 30-min incubation period, a solution of 2,2’-azobis (2-amidinopropane) dihydrochloride (AAPH) (25 µL; final concentration of 12 mM, Sigma Aldrich, St. Louis, MI, USA) was quickly introduced into all wells of the tablet. The tablet was immediately placed in a multifunctional tablet analyzer Cytation™ 3 (BioTek Instruments, Inc., Winooski, VT, USA). The fluorescence intensity was recorded for 300 min at λex = 480 nm, λem = 520 nm with an interval of every 5 min. In the same experiment, calibration solutions for the reference antioxidant Trolox were used to confirm the validity of the use of this method (0, 6.25, 12.5, 25, 50 and 100 µM).

HDAC6 = molecular target: T1, HDAC6 (Homo sapiens, UniProt Q9UBN7); experiment: Fluorimetric measurement of HDAC6 activity (FLUOR DE LYS kit); format: biochemical
T1 construct: purchased Enzo Life Sciences
T1 sequence (Q9UBN7 1-1215): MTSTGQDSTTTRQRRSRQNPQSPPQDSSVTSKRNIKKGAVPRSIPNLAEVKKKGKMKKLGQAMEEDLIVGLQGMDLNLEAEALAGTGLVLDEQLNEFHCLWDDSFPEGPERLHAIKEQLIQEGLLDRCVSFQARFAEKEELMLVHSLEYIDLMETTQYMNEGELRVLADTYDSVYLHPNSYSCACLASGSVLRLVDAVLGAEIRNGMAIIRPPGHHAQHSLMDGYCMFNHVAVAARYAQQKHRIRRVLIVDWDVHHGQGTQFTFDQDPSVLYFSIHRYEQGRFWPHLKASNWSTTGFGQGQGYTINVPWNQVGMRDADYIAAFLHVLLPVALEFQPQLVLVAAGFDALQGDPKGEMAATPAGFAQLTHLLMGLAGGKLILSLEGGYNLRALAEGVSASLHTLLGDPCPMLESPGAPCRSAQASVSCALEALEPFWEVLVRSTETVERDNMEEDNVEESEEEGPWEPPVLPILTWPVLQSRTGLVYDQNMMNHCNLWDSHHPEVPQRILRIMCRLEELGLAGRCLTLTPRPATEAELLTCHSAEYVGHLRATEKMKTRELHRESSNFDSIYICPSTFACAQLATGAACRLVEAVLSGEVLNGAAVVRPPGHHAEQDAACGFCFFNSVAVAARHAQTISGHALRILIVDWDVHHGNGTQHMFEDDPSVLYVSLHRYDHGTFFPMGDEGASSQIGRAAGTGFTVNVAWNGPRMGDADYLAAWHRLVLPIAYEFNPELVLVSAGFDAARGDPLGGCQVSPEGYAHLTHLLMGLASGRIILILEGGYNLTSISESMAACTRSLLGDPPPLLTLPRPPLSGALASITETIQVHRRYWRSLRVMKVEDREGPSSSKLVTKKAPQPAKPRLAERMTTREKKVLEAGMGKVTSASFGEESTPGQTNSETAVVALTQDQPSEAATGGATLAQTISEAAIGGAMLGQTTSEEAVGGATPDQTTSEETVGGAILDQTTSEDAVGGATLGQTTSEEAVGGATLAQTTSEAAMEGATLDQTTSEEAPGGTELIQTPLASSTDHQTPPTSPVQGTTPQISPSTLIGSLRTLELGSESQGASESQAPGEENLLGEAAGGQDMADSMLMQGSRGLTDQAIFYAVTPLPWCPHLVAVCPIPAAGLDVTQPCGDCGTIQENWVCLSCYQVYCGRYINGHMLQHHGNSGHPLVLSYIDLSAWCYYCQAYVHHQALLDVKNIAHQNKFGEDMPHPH

[3] = molecular target: T2, β-amyloid peptide 1-42 (Aβ1-42) (Homo sapiens, UniProt P05067); experiment: Thioflavin T fluorescent analysis of Aβ1-42 aggregation; format: biochemical; conditions: 48 h, compounds 100 µM, Thioflavin T 10 µM, 48 h registration; read-out: prevention of the aggregation of Aβ1-42
T2 construct: the pathological form of β-amyloid peptide 1-42 (Sigma Aldrich); purchased Sigma Aldrich
From the text: The aggregation process of β-amyloid peptide 1-42 (Aβ1-42), caused by hydrophobic interactions of peptide monomers and, as a consequence, the formation of the most toxic polymorphic structure-oligomeric fragments of Aβ, was detected using the fluorescent dye Thioflavin T (Figure 4a). This method is the most widely used for selective staining and the identification of amyloid aggregates, which is confirmed by a large number of works. Fluorescence analysis using Thioflavin T made it possible to monitor the aggregation process of the pathological form of β-amyloid peptide 1-42 (Sigma Aldrich, St. Louis, MI, USA). The experimental protocol was carried out similarly to that described in [58] with some modifications. The registration of changes in the fluorescence of thioflavin T (10 µM, Sigma Aldrich, St. Louis, MI, USA) was performed on a multifunctional tablet analyzer Cytation™3 (BioTek Instruments, Inc., Winooski, VT, USA) at λex = 450 nm, λem = 480 nm. The fluorescence intensity of the solution without Aβ1-42 was subtracted from the fluorescence values of solutions containing protein, due to the need to subtract the background fluorescence.

[4] = HDAC6, values as listed in Table S1 beside docking score, read-out: IC50

T2 sequence (P05067 672-713 limits assumed): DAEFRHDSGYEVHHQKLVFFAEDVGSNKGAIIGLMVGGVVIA

Compound	DPPH value (TE) [1]	IC50 at 24 h (Cell viability, MTT test)	ORAC value (TE) [2]	IC50 (HDAC6; [4])	inhibition at 100 µM [3]	melting point	IC50 (HDAC6; Table 1, read-out: HDAC6-Inhibitory Effect, IC50)
C=C(C)[C@@H]1CC=C(CNC(=O)c2ccc(/C=C/C(=O)NO)cc2)CC1 [Compound 38a, (S,E)-4-(3-(hydroxyamino)-3-oxoprop-1-en-1-yl)-N-((4-(prop-1-en-2-yl)cyclohex-1-en-1-yl)methyl)benzamide]	0.66 TE	> 100 µM	1.00 TE	7.74 µM	60.1%	167.2 to 167.6 °C	–
CC(C)c1ccc(CNC(=O)c2ccc(/C=C/C(=O)NO)cc2)cc1 [Compound 38b, (E)-4-(3-(hydroxyamino)-3-oxoprop-1-en-1-yl)-N-(4-isopropylbenzyl)benzamide]	0.79 TE	> 100 µM	1.04 TE	–	63.9%	160.3 to 164.9 °C	4.78 ± 0.04 µM
CC1(C)[C@H]2CC[C@@H](CNC(=O)c3ccc(/C=C/C(=O)NO)cc3)[C@@H]1C2 [Compound 38c, N-(((1S,2R,5S)-6,6-dimethylbicyclo[3.1.1]heptan-2-yl)methyl)-4-((E)-3-(hydroxyamino)-3-oxoprop-1-en-1-yl)benzamide]	0.70 TE	90.5 ± 2.9 µM	1.02 TE	8.03 µM	≤ 40%	108.6 °C	–
